From patent publication US20260285816A1, “Piperazinyl-Modified Quinazolinyl-Aryl Urea Derivative, And Preparation Method And Use Thereof” (Guangxi Normal University, priority 2025, published 2026)
Read-outs that look alike come from different tables or passages of the source.

Legend:
Format in all cases: cell-based, human
[1] = system: SK-OV-3 cells; experiment: CCK-8 anti-proliferative assay, SK-OV-3; conditions: co-incubated 48 h, read-out: Anti-proliferative activity (IC50 ± standard deviation) SK-OV-3
Method: (§1) The obtained quinazolinyl-aryl urea derivatives were screened for compounds with optimal activity using the following method.
(§2) Experimental Procedure for Anti-Proliferative Activity Evaluation: The CCK-8 assay was employed. Cells in logarithmic growth phase were harvested, adjusted to appropriate density, and uniformly seeded into 96-well plates using a multichannel pipette (180 μL cell suspension containing complete medium per well, 5,000 cells/well). Blank control wells (containing basal medium, CCK-8 solution, and DMSO only) were set. Cells were incubated at 37° C. under 5% CO2. After 70% confluency was reached, test compounds (target compounds/positive controls) were added at final concentrations of 1, 2, 4, 6, 8, 12, 16, 24, and 30 μM (3 repeated wells per concentration). Compounds were pre-dissolved in DMSO, sterilized, and diluted with medium before adding 20 μL/well. After co-incubation for designated durations, 10 μL CCK-8 solution was added per well followed by 1-4 h incubation (different cells have different incubation times). […] Inhibition rates were calculated as: (ODcontrol−ODtreatment)/ODcontrol×100%. Median inhibitory concentrations (IC50 values) were derived using Origin v8.0 software.

[2] = system: immortalized ureteral epithelial cells (SV-HUC-1); experiment: CCK-8 anti-proliferative assay, normal cells SV-HUC-1; conditions: read-out: Anti-proliferative activity (IC50 ± standard deviation) SV-HUC-1
Method: as §1, §2

[3] = system: J82 cells; experiment: CCK-8 anti-proliferative assay, J82; conditions: Table 6, co-incubated 48 h, read-out: Anti-proliferative activity (IC50 ± standard deviation) J82
Method: as §1, §2

[4] = system: UM-UC-3 cells; experiment: CCK-8 anti-proliferative assay, UM-UC-3; conditions: co-incubated 48 h, read-out: Anti-proliferative activity (IC50 ± standard deviation) UM-UC-3
Method: as §1, §2

[5] = system: T24 cells; experiment: CCK-8 anti-proliferative assay, T24; conditions: Table 6, co-incubated 48 h, read-out: Anti-proliferative activity (IC50 ± standard deviation) T24
Description: (§3) The obtained quinazolinyl-aryl urea derivatives were screened for compounds with optimal activity using the following method. All cell lines employed in this experiment were of human origin, including: bladder cancer cells: J82, UM-UC-3, T24, 5637, pancreatic cancer cells: BxPC-3, PANC-1, osteosarcoma cells: 143B, MG-63, cervical cancer cells: HeLa, breast cancer cells: MCF-7, NSCLC cells: A549, hepatoblastoma cells: Hep G2, and ovarian cancer cells: SK-OV-3, as well as normal cell lines: immortalized ureteral epithelial cells (SV-HUC-1), embryonic lung fibroblasts (WI-38).
(§4) Experimental Procedure for Anti-Proliferative Activity Evaluation: The CCK-8 assay was employed. Cells in logarithmic growth phase were harvested, adjusted to appropriate density, and uniformly seeded into 96-well plates using a multichannel pipette (180 μL cell suspension containing complete medium per well, 5,000 cells/well). Blank control wells (containing basal medium, CCK-8 solution, and DMSO only) were set. Cells were incubated at 37° C. under 5% CO2. After 70% confluency was reached, test compounds (target compounds/positive controls) were added at final concentrations of 1, 2, 4, 6, 8, 12, 16, 24, and 30 μM (3 repeated wells per concentration). Compounds were pre-dissolved in DMSO, sterilized, and diluted with medium before adding 20 μL/well. After co-incubation for designated durations, 10 μL CCK-8 solution was added per well followed by 1-4 h incubation (different cells have different incubation times). The reaction was terminated, and OD (optical density) values at 450 nm were measured using a microplate reader. Inhibition rates were calculated as: (ODcontrol−ODtreatment)/ODcontrol×100%. Median inhibitory concentrations (IC50 values) were derived using Origin v8.0 software.

[6] = system: 5637 cells; experiment: CCK-8 anti-proliferative assay, 5637; conditions: Table 6, co-incubated 48 h, read-out: Anti-proliferative activity (IC50 ± standard deviation) 5637
Method: as §1, §2

[7] = system: 143B cells; experiment: CCK-8 anti-proliferative assay, 143B; conditions: co-incubated 48 h, read-out: Anti-proliferative activity (IC50 ± standard deviation) 143B
Description: as §3, §4

[8] = system: MG-63 cells; experiment: CCK-8 anti-proliferative assay, MG-63; conditions: co-incubated 48 h, read-out: Anti-proliferative activity (IC50 ± standard deviation) MG-63
Description: as §3, §4

[9] = system: BxPC-3 cells; experiment: CCK-8 anti-proliferative assay, BxPC-3; conditions: co-incubated 48 h, read-out: Anti-proliferative activity (IC50 ± standard deviation) BxPC-3
Description: as §3, §4

[10] = system: PANC-1 cells; experiment: CCK-8 anti-proliferative assay, PANC-1; conditions: co-incubated 48 h, read-out: Anti-proliferative activity (IC50 ± standard deviation) PANC-1
Description: as §3, §4

[11] = system: HeLa cells; experiment: CCK-8 anti-proliferative assay, HeLa; conditions: Table 8, co-incubated 48 h, read-out: Anti-proliferative activity (IC50 ± standard deviation) HeLa
Method: as §1, §2

[12] = system: MCF-7 cells; experiment: CCK-8 anti-proliferative assay, MCF-7; conditions: Table 8, co-incubated 48 h, read-out: Anti-proliferative activity (IC50 ± standard deviation) MCF-7
Method: as §1, §2

[13] = system: A549 cells; experiment: CCK-8 anti-proliferative assay, A549; conditions: Table 8, co-incubated 48 h, read-out: Anti-proliferative activity (IC50 ± standard deviation) A549
Method: as §1, §2

[14] = system: Hep G2 cells; experiment: CCK-8 anti-proliferative assay, Hep G2; conditions: Table 8, co-incubated 48 h, read-out: Anti-proliferative activity (IC50 ± standard deviation) Hep G2
Description: as §3, §4

[15] = system: embryonic lung fibroblasts (WI-38); experiment: CCK-8 anti-proliferative assay, normal cells WI-38; conditions: read-out: Anti-proliferative activity (IC50 ± standard deviation) WI-38
Description: as §3, §4

[16] = Table 9, normal cells, co-incubated 48 h
[17] = Homo sapiens, SV-HUC1, Table 9, normal cells, co-incubated 48 h
[18] = Homo sapiens, WI-38, Table 9, co-incubated 48 h
[19] = Homo sapiens, UMUC3, Table 14, comparative compounds
[20] = Homo sapiens, 143B, Table 14, comparative compounds
[21] = Homo sapiens, MG-63, Table 14, comparative compounds
[22] = Homo sapiens, BXPC-3, Table 15, comparative compounds
[23] = Homo sapiens, PANC-1, Table 15, comparative compounds
[24] = Homo sapiens, SK-OV-3, Table 15, comparative compounds

IC50 ([5]; Homo sapiens, T-24) [µM]	IC50 ([9]; Homo sapiens, BXPC-3, Table 7) [µM]	IC50 ([10]; Homo sapiens, PANC-1, Table 7) [µM]	IC50 ([11]; Homo sapiens, HeLa) [µM]	IC50 ([12]; Homo sapiens, MCF7) [µM]	IC50 ([13]; Homo sapiens, A549) [µM]	IC50 ([1]; Homo sapiens, SK-OV-3, Table 9) [µM]	SMILES	IC50 ([3]; Homo sapiens, J82) [µM]	IC50 ([4]; Homo sapiens, UMUC3, Table 6) [µM]	IC50 ([6]; Homo sapiens) [µM]	IC50 ([7]; Homo sapiens, 143B, Table 7) [µM]	IC50 ([8]; Homo sapiens, MG-63, Table 7) [µM]	IC50 ([14]; Homo sapiens, HepG2) [µM]	IC50 [2, 17] [µM]	IC50 [15, 18] [µM]	further results
–	–	–	–	–	–	–	[NH2][Pt]([NH2])([Cl])[Cl] [CDDP, cisplatin, reference compound]	–	–	–	–	–	–	–	–	IC50 ([1]; Table 9): 9.89 ± 0.97 µM; IC50 [2, 16]: 10.3 ± 0.68 µM
–	–	–	–	–	–	–	COc1cc2ncnc(NCc3cccc(NC(=O)Nc4ccccc4)c3)c2cc1OCCCCCCN1CCN(CCN2CCOCC2)CC1 [Compound 8-1a, N-(3-(((7-methoxy-6-((6-(4-(2-morpholinoethyl)piperazin-1-yl)hexyl)oxy)quinazolin-4-yl)a-mino)methyl)phenyl)-N′-phenylurea]	–	–	–	–	–	–	–	–	IC50 [3]: > 30 µM; IC50 ([4]; Table 6): > 30 µM; IC50 [5]: > 30 µM; IC50 [6]: 26.4 ± 1.63 µM; IC50 ([7]; Table 7): 18.7 ± 1.63 µM; IC50 ([8]; Table 7): 27.3 ± 1.51 µM; IC50 ([9]; Table 7): 15.7 ± 0.78 µM; IC50 ([10]; Table 7): > 30 µM; IC50 [11]: > 30 µM; IC50 [12]: > 30 µM; IC50 [13]: > 30 µM; IC50 [14]: > 30 µM; IC50 ([1]; Table 9): 28.1 ± 1.72 µM; IC50 [2, 16]: > 30 µM; IC50 ([15]; Table 9, co-incubated 48 h): 25.9 ± 2.74 µM
11.5 ± 0.66	16.5 ± 0.92	> 30	> 30	25.8 ± 2.53	18.4 ± 0.98	9.73 ± 0.69	COc1cc2ncnc(NCc3cccc(NC(=O)Nc4cccc(C)c4)c3)c2cc1OCCCCCCN1CCN(CCN2CCOCC2)CC1 [Compound 8-1c, N-(3-(((7-methoxy-6-((6-(4-(2-morpholinoethyl)piperazin-1-yl)hexyl)oxy)quinazolin-4-yl)amino)methyl)phenyl)-N′-(3-methylphenyl)urea]	6.05 ± 0.63	14.1 ± 0.82	13 ± 0.85	13 ± 0.84	7.34 ± 0.65	7.27 ± 0.51	16 ± 0.81	13.9 ± 0.73	–
6.59 ± 0.79	13.7 ± 0.73	27.4 ± 2.24	16.1 ± 0.71	> 30	15.8 ± 0.84	9.26 ± 0.87	COc1cc2ncnc(NCc3cccc(NC(=O)Nc4ccc(C)cc4)c3)c2cc1OCCCCCCN1CCN(CCN2CCOCC2)CC1 [Compound 8-1d, N-(3-(((7-methoxy-6-((6-(4-(2-morpholinoethyl)piperazin-1-yl)hexyl)oxy)quinazolin-4-yl)amino)methyl)phenyl)-N′-(4-methylphenyl)urea]	5.89 ± 0.57	13.2 ± 0.77	7.72 ± 0.66	8.62 ± 0.53	7.73 ± 0.49	7.04 ± 0.48	12.8 ± 0.66	12.6 ± 0.92	–
24.8 ± 0.62	10.8 ± 0.52	13.1 ± 0.78	23 ± 0.99	20.3 ± 1.88	26.4 ± 2.59	6.38 ± 0.51	CCc1ccccc1NC(=O)Nc1cccc(CNc2ncnc3cc(OC)c(OCCCCCCN4CCN(CCN5CCOCC5)CC4)cc23)c1 [Compound 8-1g, N-(3-(((7-methoxy-6-((6-(4-(2-morpholinoethyl)piperazin-1-yl)hexyl)oxy)quinazolin-4-yl)amino)methyl)phenyl)-N′-(2-ethylphenyl)urea]	19.7 ± 0.98	26 ± 1.79	22.5 ± 0.79	19.3 ± 0.74	10.9 ± 0.93	12.7 ± 0.74	> 30	> 30	–
–	–	–	–	–	–	–	O=C(Nc1ccc(C(F)(F)F)cc1)Nc1cccc(CNc2ncnc3ccccc23)c1 [Compound II-13, reference compound]	–	–	–	–	–	–	–	–	IC50 [4, 19]: 9.63 ± 0.52 µM; IC50 [7, 20]: 7.56 ± 0.27 µM; IC50 [8, 21]: 20.8 ± 0.95 µM; IC50 [9, 22]: 8.43 ± 0.39 µM; IC50 [10, 23]: 26.2 ± 2.26 µM; IC50 [1, 24]: 15 ± 1.74 µM
–	–	–	–	–	–	–	O=C(Nc1cccc(CNc2ncnc3ccccc23)c1)Nc1ccc(Cl)cc1Cl [Compound II-17, reference compound]	–	–	–	–	–	–	–	–	IC50 [4, 19]: 7.69 ± 0.56 µM; IC50 [7, 20]: 10.3 ± 0.67 µM; IC50 [8, 21]: 8.54 ± 0.59 µM; IC50 [9, 22]: 14.2 ± 0.82 µM; IC50 [10, 23]: 20.7 ± 0.96 µM; IC50 [1, 24]: 9.27 ± 0.55 µM
–	–	–	–	–	–	–	CNC(=O)c1cc(Oc2ccc(NC(=O)Nc3ccc(Cl)c(C(F)(F)F)c3)c(F)c2)ccn1 [Reg, regorafenib, reference compound]	–	–	–	–	–	–	–	–	IC50 ([2]; Homo sapiens, SV-HUC1, 48 h): 11.4 ± 0.69 µM
